This note sets out measurements from publication PMC4747407 (Oncotarget, 2015).

Each structure is given as a SMILES string. “Also recorded” adds a separate entry of the source. A value given as a limit tells only on which side of the number the result lay.

Data set [1] relates to Wnt1 (int-1) mammary tumors. Description: Wnt1 subcutaneous mammary tumor model. On the procedure: All studies were performed according to IACUC approved protocols. The general health of mice was monitored daily. Tumor volume was determined by caliper measurements (mm), using the formula (l x w^2)/2 = mm^3, where l and w refer to the larger and smaller perpendicular dimensions collected at each measurement. Tumor dimensions were recorded twice per week starting when tumors reached an approximate size of 100 to 150 mm^3. Body weights were recorded twice per week and relative body weight was calculated as follows: Relative body weight = (body weight on day of measurement/body weight on first day of treatment).
Tumor pieces cut to approximately 2 mm^3 in size were injected subcutaneously in female nude mice. Treatment was initiated approximately 9–10 days post-implantation of mice.

The next data set relates to SW480 cells. Description: Western blot of Wnt/β-catenin pathway proteins in SW480 cells. Conditions: 10 μmol/L, 24 h. The class given is cell-based, human. On the procedure: (§1) SW480, DLD-1 (Wnt-dependent) or RKO (Wnt-independent) cells were plated in 6-well plates and incubated overnight. Cells were treated with E7449, olaparib or XAV939 and incubated for various time periods prior to processing by SDS PAGE and western blot analysis. […] Following binding of appropriate secondary antibodies labeled with IRDye® (LI-COR), image analysis was performed with Image Studio software for the LI-COR Odyssey system (version 2.1.10).
(In general: In western blotting, separated proteins are transferred to a membrane and probed.)

For a further data set, the system named is DLD-1 cells. Briefly: Western blot of Wnt/β-catenin pathway proteins in DLD-1 cells. The class given is cell-based, human. Conditions: 24 h. On the procedure:
as §1

For data set [2], the system named is PARP activity in MDA-MB-436 tumor tissue. Description: Pharmacodynamic PARP inhibition (PAR ELISA) in MDA-MB-436 tumor lysates. The class given is in vivo, mouse. Here is the method: Control group (10 mice) were treated with vehicle (0.5% methyl cellulose in water). Mice were euthanized and tumors were harvested at 1, 6, 12, 24 and 36 hours post treatment (5 mice per treatment per time point). Individual tumors were removed and flash frozen in liquid nitrogen for PAR analysis. PARP inhibition was also evaluated in tumors from NCI-H460 human lung cancer subcutaneous xenografts. Control group animals (24 mice) were treated with vehicle (0.5% methyl cellulose). […] Mice were euthanized and tumors were harvested at 0.25, 1, 6, 12, 24 and 36 hours post-treatment. PAR levels were determined by ELISA using the procedure provided by Trevigen and comparing to a PAR standard curve. Protein concentration of tumor lysates was determined using the BCA assay (Thermo Scientific). Results were converted from pg PAR/assay well to ng PAR/mg protein. Data was pooled from multiple experiments. The percent of control for each time point was calculated by using an average of all control replicates from that experiment.
In general terms: An ELISA detects its analyte on a solid surface through an enzyme-linked reagent.

A further data set concerns wild type DT40 cells. Briefly: cells. Conditions: DT40, 48 h, read-out: IC50, cell proliferation, wild type DT40 cells.

Procedure for wild type DT40 cells: Proliferation assays were performed in a panel of 32 isogenic DT40 cell lines, in which each line was deficient in a distinct DNA repair gene [31]. Cells were seeded and incubated with test compound at various concentrations for 2–3 days (~ 8 cell cycles). […] Each experiment was conducted in duplicate and a minimum of 3 separate experiments were performed. […] For proliferation assays cells were plated at low density in 96 well plates. […] Cell growth was assessed using the CellTiter-Glo® cell viability assay (Promega, Cat# G7573). Each experiment was conducted in duplicate and a minimum of 3 separate experiments were performed.

As to `O=c1[nH]nc2c3c(cccc13)N=C(CN1Cc3ccccc3C1)N2` [E7449, 8-(isoindolin-2-ylmethyl)-2,9-dihydro-3H-pyridazino[3,4,5-de]quinazolin-3-one], the “effect of adding E7449 to E6201 on body weight loss” value in data set [1] (E7449 100 mg/kg + E6201 40 mg/kg) is given as “did not impact body weight loss”. Also, the “tumor growth, single agent” value in data set [1] (E7449 100 mg/kg once daily, Wnt-C59 10 mg/kg once daily, E6201 40 mg/kg i.v. Q4Dx3) is listed as “did not inhibit tumor growth; also recorded: No antitumor effect”. Also, the “antitumor activity, combination of E7449 and E6201” value in data set [1] (E7449 100 mg/kg oral once daily + E6201 40 mg/kg i.v. Q4Dx3) was “Antitumor activity was enhanced; also recorded: synergistic inhibition of tumor growth”. Further, the “tolerability (body weight loss), single agent” value in data set [1] (E7449 100 mg/kg, Wnt-C59 10 mg/kg once daily) was “well tolerated with minimal toxicity”. Further, in the data set on SW480 cells, the “Cyclin D1 protein levels” value is given as “modest decrease”, the axin2 protein level entry is on record as “significant increase”, the “reduction of active (non-phosphorylated) β-catenin level” value is reported as ~ 70% and the “reduction of total β-catenin level” value is listed as approximately 50%. Moreover, the “effect on levels of β-catenin” value with DLD-1 cells is given as “robust effect on levels of β-catenin was not observed”. The “time of partial rebound of PARP activity” value in data set [2] (single dose 30 mg/kg) was not above 12 h. Also, in data set [2] (single dose 100 mg/kg), the “duration of significant PARP inhibition in tumor” value was “at least 12 hours” and the “time of recovery of PARP activity to basal levels” value is not above 24 h. Further, in the data set on wild type DT40 cells, the IC50 is 3.2 µM.
